Test results: ChEMBL document CHEMBL2021773, “Isolation, structure elucidation, and antibacterial activity of methiosetin, a tetramic acid from a tropical sooty mold (Capnodium sp.)” (2012)
Values after ≈ are worked out from the molar mass of the structure shown. Active and inactive are the calls of the source. No cut-off for these calls is given here.

Columns and labels:
Staphylococcus aureus [1] = experiment: Antibacterial activity against Staphylococcus aureus EP167 by two fold serial broth dilution method; type: functional
Haemophilus influenzae = experiment: Antibacterial activity against Haemophilus influenzae by two fold serial broth dilution method; type: functional
Staphylococcus aureus [2] = experiment: Potency ratio, ratio of methiosetin MIC to compound MIC for Staphylococcus aureus EP167 by two fold serial broth dilution method; type: functional
Staphylococcus aureus [3] = experiment: Antibacterial activity against Staphylococcus aureus Smith at 64 ug/mL by two fold serial broth dilution method; type: functional, organism-based
Enterococcus faecalis = experiment: Antibacterial activity against Enterococcus faecalis at 64 ug/mL by two fold serial broth dilution method; type: functional, organism-based
Streptococcus pneumoniae = experiment: Antibacterial activity against Streptococcus pneumoniae at 64 ug/mL by two fold serial broth dilution method; type: functional, organism-based
Escherichia coli = experiment: Antibacterial activity against Escherichia coli at 64 ug/mL by two fold serial broth dilution method; type: functional, organism-based

Row | SMILES | MIC (Staphylococcus aureus [1]) | MIC (Haemophilus influenzae) | Ratio (Staphylococcus aureus [2]) | inhibition (Staphylococcus aureus [3]) | inhibition (Enterococcus faecalis) | inhibition (Streptococcus pneumoniae) | inhibition (Escherichia coli)
1 | O=C1C=C[C@H](O)[C@@H]2[C@@H]1C[C@@]13SS[C@]4(C[C@@H]5C(=O)C=C[C@H](O)[C@H]5N4C1=O)C(=O)N23 [EPICORAZINE A] | 32 µg/mL (≈ 76.1 µM) | 0.5 µg/mL (≈ 1.19 µM) | 8 |  |  |  | 
2 | CC(O)C1C(O)=C(C(=O)[C@H]2[C@@H]3CCCC[C@H]3C=C[C@H]2C)C(=O)N1C (some centres undefined) [METHIOSETIN] | 256 µg/mL (≈ 768 µM) | 32 µg/mL (≈ 96 µM) |  | inactive | inactive | inactive | inactive
